≈ marks a conversion by molar mass, not a printed value.
How the values were obtained:
[1] = test system: Wild-type P. aeruginosa PAO1; test: Broth microdilution MIC, wild-type P. aeruginosa PAO1; type: cell-based; conditions: Pseudomonas aeruginosa; wild-type P. aeruginosa PAO1, 37° C., 18 h; read-out: PAO1 WT MIC
Description: (§1) Exemplary compounds from the above Examples were tested to determine their minimum inhibitory concentration (MIC) for exemplary strains of Escherichia and Pseudomonas bacteria using broth microdilution methods. Assay procedures and results are described below.
(§2) Broth microdilution assays were conducted according to Clinical and Laboratory Standards Institute guidelines (CLSI, M07-A^11: Clinical and Laboratory Standards Institute. Methods for Dilution Antimicrobial Susceptibility Tests for Bacteria that Grow Aerobically; Approved Standard-11th Edition. Wayne, PA: CLSI, 2018). Briefly, bacterial suspensions were adjusted to a density equivalent to a 0.5 McFarland standard and diluted in sterile, cation-adjusted Mueller-Hinton broth (Beckton Dickinson) to yield a final inoculum between 2×10^5 and 8×10^5 colony-forming units (CFU)/mL. An inoculum volume of 98 μL was added to wells containing 2 μL of 2-fold serial dilutions of drug (prepared in DMSO). All inoculated microdilution trays were incubated in ambient air at 37° C. for 18 h. […] Performance of the assay was monitored by the use of laboratory quality-control strains (S. aureus ATCC 29213 and P. aeruginosa ATCC 27853) and levofloxacin, a compound with a defined MIC spectrum, in accordance with CLSI guidelines (CLSI, M100Ed29: Clinical and Laboratory Standards Institute. Performance Standards for Antimicrobial Susceptibility Testing, 29th Edition. Wayne, PA: CLSI, 2018).
(§3) Multiple enterobacteriaceae strains were tested, including both wild-type strains and multi-drug resistance pump deficient mutants. Specific strains tested included the following: • Wild-type P. aeruginosa PAO1, • P. aeruginosa PAO1 ΔmexABoprM—Disabled multi-drug efflux system Δ(MexAB-OprM), • P. aeruginosa PAO397—PAO1Δ(mexAB-oprM) Δ(mexCD-oprJ) Δ(mexEF-oprN) Δ(mexJK) Δ(mexXY) ΔopmH, • P. aeruginosa LESB58—Clinical isolate; colistin-resistant, isolated in the United Kingdom in 1988 from a patient with cystic fibrosis • E. coli JW0452-3 (BW25113 JacrA::kan)—Disabled multi-drug efflux system (AcrAB-TolC).
(§4) Experimental results are provided in Table 11, which provides MIC values for wild-type P. aeruginosa PAO1 (“PAO1 WT MIC”), P. aeruginosa PAO ΔmexABoprM (“PAO1 KO MIC”), P. aeruginosa PAO397 (“PAO397 KO MIC”), P. aeruginosa LESB58 (“LESB58”), and E. coli JW0452-3 (BW25113 JacrA::kan) (“E. coli KO MIC”).

P. aeruginosa LESB58 = test: Broth microdilution MIC, P. aeruginosa LESB58; type: cell-based; conditions: Pseudomonas aeruginosa; P. aeruginosa LESB58 clinical isolate, colistin-resistant, 37° C., 18 h
Description: as §1, §2, §3, §4

P. aeruginosa PAO397 = test: Broth microdilution MIC, P. aeruginosa PAO397; type: cell-based; conditions: Pseudomonas aeruginosa, PAO397, 18 h, read-out: PAO397 KO MIC
Description: as §1, §2, §3, §4

[2] = target: T1, recombinant LpxA enzyme (P. aeruginosa) (Pseudomonas aeruginosa, UniProt Q9X6P4); test: LpxA in vitro substrate acylation assay with RapidFire MS analysis (P. aeruginosa); type: biochemical; conditions: P. aeruginosa enzyme 0.5 nM, PaACP-C10, 30 min
T1 sequence (Q9X6P4 1-258): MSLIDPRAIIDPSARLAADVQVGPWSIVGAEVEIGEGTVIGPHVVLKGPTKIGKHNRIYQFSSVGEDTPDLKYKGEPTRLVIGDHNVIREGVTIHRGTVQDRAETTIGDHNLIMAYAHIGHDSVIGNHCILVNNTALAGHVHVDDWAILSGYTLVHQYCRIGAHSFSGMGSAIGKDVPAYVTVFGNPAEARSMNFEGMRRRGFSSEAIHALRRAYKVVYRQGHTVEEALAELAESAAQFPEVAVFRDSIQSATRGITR
Description: Exemplary compounds from the above Examples were tested for ability to inhibit LpxA activity using an in vitro substrate acylation assay with RapidFire™ MS analysis. Assay procedures and results are described below.
Reactions were carried out in a final volume of 30 μL with 25 mM HEPES (pH 7.3), 150 mM NaCl, 2 mM DTT, 0.01% BSA, 5 μM UDP-GlcNac, recombinant LpxA enzyme (0.5 nM P. aeruginosa or 1.0 nM E. coli, both produced at Evotec), 0.5 μM acyl-transfer reagent (decanoyl P. aeruginosa acyl-carrier protein [PaACP-C10] or myristoyl E. coli acyl-carrier protein [EcACP-C1-4], both produced at Evotec), and 1% DMSO containing test compound. After 30 min incubation at room temperature, reactions were stopped by addition of 30 μL of 10% TCA in water.
Samples were centrifuged (4350 rpm, 4° C., 5 min), and then subjected to RapidFire™ MS analysis on an Agilent RapidFire 300 coupled to an Agilent 6460 triple-quadrupole mass spectrometer. Analytes were retained on a C4 (type A) cartridge using the following solvents and flow rates: • Pump 1—H2O with 5 mM NH4OAc at 2.0 mL/min, • Pump 2—MeOH/H2O (90/10) at 1.5 mL/min, • Pump 3—MeOH/H2O (90/10) at 0.5 mL/min, and • Pump 4—ACN (organic)/H2O (aqueous). Substrate and product of the reaction were detected in negative mode ESI-MS/MS by MRM (multiple reaction monitoring) of transitions 606.0/385.0 (UDP-GlcNAc substrate) and 776.2/385.0 (UDP-3-O—(R-3-hydroxydecanoyl)-GlcNAc product, for P. aeruginosa LpxA assay) or 832.2/385.0 (UDP-3-O—(R-3-hydroxymyristoyl)-GlcNAc product, for E. coli LpxA assay).
For IC50 determinations, peak areas of the substrate and product were compared to compute the proportion of product formed by the LpxA enzyme at each compound concentration.

CCc1c(F)cc(F)cc1OC(C)C(=O)N(Cc1nnc(N)o1)Cc1ccc(C#N)cc1F (single isomer, unassigned) [Compound No. 100]
MIC [1]: 1 to 16 mg/L (≈ 2.18 to 34.8 µM)
MIC (P. aeruginosa LESB58): 1 to 16 mg/L (≈ 2.18 to 34.8 µM)

N#Cc1ccc(CN(CC(=O)NC2COC2)C(=O)CSc2ccccc2Cl)cc1 [Compound No. 1, 2-[[2-(2-Chlorophenyl)sulfanylacetyl]-[(4-cyanophenyl)methyl]amino]-N-(oxetan-3-yl)acetamide]
MIC (P. aeruginosa PAO397): 1 to 16 mg/L (≈ 2.33 to 37.2 µM)

NCc1ccc(CN(Cc2nnc(N)o2)C(=O)CSc2ccccc2Cl)cc1 [Compound No. 61, N-[[4-(Aminomethyl)phenyl]methyl]-N-[(5-amino-1,3,4-oxadiazol-2-yl)methyl]-2-(2-chlorophenyl)sulfanyl-acetamide]
MIC [1]: > 64 mg/L
IC50 [2]: > 1 µM
MIC (P. aeruginosa PAO397): 16 to 64 mg/L (≈ 38.3 to 153 µM)

N#Cc1ccc(CN(CC(=O)NC2CCNCC2)C(=O)CSc2ccccc2Cl)cc1 [compound 4]
MIC [1]: > 64 mg/L
MIC (P. aeruginosa PAO397): 16 to 64 mg/L (≈ 35 to 140 µM)

N#Cc1ccc(CN(Cc2nnc(N)o2)C(=O)COc2ccccc2Cl)cn1 [compound 17]
MIC [1]: > 64 mg/L
MIC (P. aeruginosa PAO397): 1 to 16 mg/L (≈ 2.51 to 40.1 µM)

N#Cc1ccc(CN(C(=O)CSc2ccccc2Cl)C2(c3nnc(N)o3)CC2)cc1 [compound 22]
MIC [1]: > 64 mg/L
MIC (P. aeruginosa PAO397): 1 to 16 mg/L (≈ 2.27 to 36.4 µM)

N#Cc1ccc(CN(C(=O)CSc2ccccc2Cl)C2(c3nnc(N)o3)CC2)c(F)c1 [compound 23]
MIC [1]: > 64 mg/L
IC50 [2]: 0.02 to 0.1 µM
MIC (P. aeruginosa PAO397): 1 to 16 mg/L (≈ 2.18 to 34.9 µM)

N#Cc1ccc(CN(Cc2cc[nH]n2)C(=O)CSc2ccccc2Cl)cc1 [compound 49]
MIC [1]: > 64 mg/L
IC50 [2]: 0.1 to 1 µM
MIC (P. aeruginosa PAO397): 1 to 16 mg/L (≈ 2.52 to 40.3 µM)

N#Cc1ccc(CN(Cc2cn[nH]c2)C(=O)CSc2ccccc2Cl)cc1 [compound 50]
MIC [1]: > 64 mg/L
IC50 [2]: 0.1 to 1 µM
MIC (P. aeruginosa PAO397): 1 to 16 mg/L (≈ 2.52 to 40.3 µM)

CC(C)c1ccccc1OCC(=O)N(Cc1ccc(C#N)cc1)Cc1nnc(N)o1 [compound 53]
MIC [1]: > 64 mg/L
MIC (P. aeruginosa PAO397): 1 to 16 mg/L (≈ 2.47 to 39.5 µM)

N#Cc1ccc(CN(Cc2ccc3cn[nH]c3c2)C(=O)CSc2ccccc2Cl)cc1 [compound 71]
MIC [1]: > 64 mg/L
IC50 [2]: > 1 µM

Cc1ncc(CN(Cc2ccc(C#N)cc2)C(=O)CSc2ccccc2Cl)[nH]1 [compound 75]
MIC [1]: > 64 mg/L
MIC (P. aeruginosa PAO397): 1 to 16 mg/L (≈ 2.43 to 38.9 µM)

[2H]C([2H])(Oc1cc(F)cc(F)c1C([2H])([2H])C([2H])([2H])[2H])C(=O)N(Cc1nnc(N)o1)Cc1ccc(C#N)cc1F [compound 77, N-[(5-amino-1,3,4-oxadiazol-2-yl)methyl]-N-[(4-cyano-2-fluoro-phenyl)methyl]-2,2-dideuterio-2-[3,5-difluoro-2-(1,1,2,2,2-pentadeuterioethyl)phenoxy]acetamide]
MIC [1]: 1 to 16 mg/L (≈ 2.21 to 35.4 µM)
MIC (P. aeruginosa LESB58): 1 to 16 mg/L (≈ 2.21 to 35.4 µM)

CCc1c(F)cc(F)cc1OCC(=O)N(Cc1nnc(N)o1)Cc1ccc(S(N)(=O)=O)cc1F [compound 79, N-[(5-Amino-1,3,4-oxadiazol-2-yl)methyl]-2-(2-ethyl-3,5-difluoro-phenoxy)-N-[(2-fluoro-4-sulfamoyl-phenyl)methyl]acetamide]
MIC [1]: 1 to 16 mg/L (≈ 2 to 32 µM)
MIC (P. aeruginosa LESB58): 1 to 16 mg/L (≈ 2 to 32 µM)

Nc1nnc(CN(Cc2ccc(S(N)(=O)=O)cc2F)C(=O)COc2cc(F)cc(F)c2C2CC2)o1 [compound 80]
MIC [1]: 16 to 64 mg/L (≈ 31.3 to 125 µM)
MIC (P. aeruginosa LESB58): 1 to 16 mg/L (≈ 1.96 to 31.3 µM)

N#Cc1ccc(CN(Cc2nnc(N)o2)C(=O)COc2cc(F)cc(F)c2C2CC2)c(F)c1 [compound 81]
MIC [1]: 16 to 64 mg/L (≈ 35 to 140 µM)
MIC (P. aeruginosa LESB58): 1 to 16 mg/L (≈ 2.19 to 35 µM)

[2H]C([2H])(Oc1cc(F)cc(F)c1C([2H])([2H])C([2H])([2H])[2H])C(=O)N(Cc1ccc(C#N)nc1)Cc1nnc(N)o1 [compound 82]
MIC [1]: > 64 mg/L
MIC (P. aeruginosa LESB58): 16 to 64 mg/L (≈ 36.7 to 147 µM)

From US20240166612A1, “ARYLTHIOETHER ACETAMIDE AND RELATED COMPOUNDS AND THEIR USE IN TREATING MEDICAL CONDITIONS” (X-Biotix Therapeutics, Inc., priority 2021, published 2024)
